Measurements: patent US9029405B2, “5-(biphenyl-4-yl)-3-phenyl-1,2,4-oxadiazolyl derivatives as ligands on the sphingosine 1-phosphate(SIP)receptors” (Merck Serono S.A., priority 2010, dated 2015)
Counter-ions that a name gives are not always drawn. Like-named read-outs stand apart in the source and are kept apart here.

Assays:
S1P3 = S1P3 (Homo sapiens, UniProt Q99500); experiment: Receptor binding assay, [33P]sphingosine 1-phosphate competition, membranes of CHO cells expressing S1P3; details: 96 well plate; read-out: S1P3 Binding Ki [M] (96 well plate)
Description: (§1) Membranes were prepared from CHO cells expressing S1P1 or S1P3 for use in ligand binding studies. Cells were suspended in 50 mM TRIS, pH 7.4, 2 mM EDTA, 250 mM Sucrose (buffer A) and 1× Complete protease inhibitor cocktail (Roche), and disrupted at 4° C. by N2 decompression using a cell disruption bomb (Parr Instrument). Following centrifugation at 1000 RPM for 10 min at 4° C., the supernatant was diluted (2×) in buffer A and centrifuged again at 19000 RPM for 75 min at 4° C. The pellet was then suspended in 10 mM HEPES, pH 7.4, 1 mM EDTA, 250 mM Sucrose (Buffer B), and 1× Complete EDTA-free protease inhibitor cocktail and homogenized using a potter. Membranes were flash frozen in liquid N2 and stored at −80° C.
(§2) [33P]sphingosine 1-phosphate (3000 Ci/mmol; American Radiolabeled Chemicals, Inc.) was added to test compounds in 20% DMSO by competition. Membranes and WGA SPA beads (GE Healthcare) were added to give a final volume of 100 μl in 96-well plates or 50 μl in 384-well plates with assay concentrations of 30 pM or 15 pM [33P]sphingosine 1-phosphate (respectively for S1P1 or S1P3), 50 mM HEPES, pH 7.5, 5 mM MgCl2, 100 mM NaCl, 0.4% fatty acid-free BSA, 1-5 μg/well of proteins in 96-well plates vs 0.6-1 μg/well of proteins in 384-well plates and 100 μg/well of WGA SPA beads in 96-well plates vs 75 μg/well of WGA SPA beads in 384-well plates. Binding was performed for 60 min at RT on a shaker and bound radioactivity was measured on a PerkinElmer 1450 MicroBeta counter. Triplicate samples were averaged and normalized as percentage of inhibition relative to total binding (only DMSO in well) and non specific binding (1000-fold excess of unlabeled S1P). Binding data were analyzed using the GraphPad Prism program or Genedata software.
(§3) The “potency” or the “activity” of the compounds is determined by the Ki values as evaluated in one of the above described binding assay, 96 or 384 well plates.

S1P1 [1] = target: T1, S1P1 (Homo sapiens, UniProt P21453); experiment: Receptor binding assay, [33P]sphingosine 1-phosphate competition, membranes of CHO cells expressing S1P1
Description: as §1, §2, §3
Target sequence in this assay (P21453 whole entry, species assumed): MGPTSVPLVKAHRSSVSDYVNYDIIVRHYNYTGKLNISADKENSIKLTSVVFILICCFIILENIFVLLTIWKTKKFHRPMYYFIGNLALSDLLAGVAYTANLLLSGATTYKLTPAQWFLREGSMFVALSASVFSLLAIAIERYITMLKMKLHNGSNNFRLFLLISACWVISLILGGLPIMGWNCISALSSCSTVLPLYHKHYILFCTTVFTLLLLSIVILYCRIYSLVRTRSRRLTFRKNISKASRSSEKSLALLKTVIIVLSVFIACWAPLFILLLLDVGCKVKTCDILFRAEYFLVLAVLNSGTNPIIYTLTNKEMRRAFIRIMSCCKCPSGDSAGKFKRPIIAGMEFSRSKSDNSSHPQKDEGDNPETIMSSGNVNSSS

S1P1 [2] = target: T1, S1P1; experiment: S1P1 internalization assay in S1P1-U2OS cells (cell imaging); assay type: cell-based; set-up: host or cells: U2OS (human bone osteosarcoma epithelial cells); details: U2OS cells expressing S1P1-EGFP, 384-well format
Description: Cellular Functional Assays: Internalization of Sphinqosine-1-phosphate Receptor 1 (S1P1) in a Human Cell Line (U2OS) in a 384-Well Format Using a Cell Imaging Analysis.
The S1P1 internalization assay was performed in 384 well plates (Corning 384 black with clear bottom 3712) using S1P1-U2OS cells from BioImage (C039A), a human epithelial cell line (Human Bone Osteosarcoma Epithelial Cells). These cells expressed the human S1P1 Receptor fused to the green fluorescent protein (EGFP). A standard CMV promoter (cytomegalovirus promoter) controls the expression of S1P1-EGFP and continuous expression was maintained by addition of geneticin to the culture medium.
S1P1 Receptor desensitization induced the internalization of the membrane-localized S1P-EGFP fusion protein to endosomes, which can be monitored by cell imaging analysis.
The cells are plated in low serum medium (Dulbecco's Modified Eagle Medium (DMEM) with Glutamax-1 and high glucose, 1% Penicillin/Streptomycin, 1% Fetal Calf Serum (FCS), 0.5 mg/ml Geneticin) overnight.
The next day, S1P1-U2OS cells are incubated in 20 μl serum free medium (DMEM with Glutamax-1 and high glucose, 0.1% of fatty-acid free Bovin Serum Albumin (BSA), 10 mM, N′-2-Hydroxyethylpiperazine-N′-2 ethanesulphonic acid (HEPES) 1M) for 2 hours at 37° C./5% CO2. The cells are then treated with 4 μl compounds/agonists (6×/3% DMSO) for a total volume of 24 μl, and plates are incubated for 1 hour at 37° C./5% CO2.
S1P1-U2OS cells are fixed with 25 μl Paraformaldehyde 8% and stained with Hoechst 33345 dye (1:1000) for 20 minutes.
They were then washed 3 times with Phosphate Buffered Saline (PBS) and plates are sealed. The internalization of the receptor S1P1-EGFP is measured on Cellomics by calculating the “spot count per object” (“object” corresponds to nuclear and “spot” corresponds to S1P1-EGFP receptor). Internalization data were observed thanks to vHCS View and analyzed using Genedata® software.
Target sequence in this assay (P21453 whole entry): as the sequence (P21453 whole entry, species assumed) above

[3] = 96 well plate, read-out: S1P1 Binding Ki [M] (96 well plate)
[4] = 384 well plate, read-out: S1P1 Binding Ki [M] (384 well plate)

Sequence of S1P3 (Q99500 whole entry, species assumed): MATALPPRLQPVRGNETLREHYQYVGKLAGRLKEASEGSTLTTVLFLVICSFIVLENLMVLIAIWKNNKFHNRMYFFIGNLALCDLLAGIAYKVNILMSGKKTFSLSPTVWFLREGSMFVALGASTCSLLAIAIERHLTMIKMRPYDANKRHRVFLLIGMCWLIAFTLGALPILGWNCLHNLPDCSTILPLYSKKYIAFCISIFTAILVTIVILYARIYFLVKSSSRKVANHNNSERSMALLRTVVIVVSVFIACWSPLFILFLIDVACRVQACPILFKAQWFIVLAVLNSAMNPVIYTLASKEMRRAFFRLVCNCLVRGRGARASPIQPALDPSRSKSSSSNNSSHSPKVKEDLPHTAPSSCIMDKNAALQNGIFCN

SMILES | Ki (S1P3) [M] | Ki (S1P1 [1]; [3]) [M] | Ki (S1P1 [1]; [4]) [M] | EC50 (S1P1 [2]) [µM]
COCc1cc(-c2nc(-c3ccc([C@H](C)N(C)CC(=O)O)cc3)no2)ccc1-c1ccccc1C [Example 98, N-[(1S)-1-(4-{5-[2-(methoxymethyl)-2′-methylbiphenyl-4-yl]-1,2,4-oxadiazol-3-yl}phenyl)ethyl]-N-methylglycine, hydrochloride salt] | ≥ 2e-05 | 6.2e-10 |  | 
Cc1cc(-c2nc(-c3cccc(C(C)N(C)[C@@H](C)C(=O)O)c3)no2)ccc1-c1ccccc1C(F)(F)F (stereo partly shown) [Example 28, N-methyl-N-[1-(3-{5-[2-methyl-2′-(trifluoromethyl)biphenyl-4-yl]-1,2,4-oxadiazol-3-yl}phenyl)ethyl]alanine, hydrochloride salt] |  |  | 1.38e-08 | 5.17
Cc1cc(-c2nc(-c3ccc([C@H](C)N(C)CC(=O)O)cc3)no2)ccc1-c1ccccc1C(F)(F)F [Example 33, N-methyl-N-[(1S)-1-(4-{5-[2-methyl-2′-(trifluoromethyl)biphenyl-4-yl]-1,2,4-oxadiazol-3-yl}phenyl)ethyl]glycine, hydrochloride salt] |  |  | 5.77e-09 | 0.091
Cc1ccccc1-c1ccc(-c2nc(-c3cccc(CN(C)C(C)(CO)C(=O)O)c3)no2)cc1C(F)(F)F (stereo not shown) [Example 84] |  |  | 4.25e-09 | 0.0846
Cc1ccccc1-c1ccc(-c2nc(-c3ccc(CN(C)C(C(=O)O)C(C)O)cc3)no2)cc1C(F)(F)F (stereo not shown) [Example 74] |  |  | 8.53e-09 | 0.106
Cc1ccccc1-c1ccc(-c2nc(-c3ccc([C@@H](C)N)cc3)no2)cc1C(F)(F)F [Example M1] | 1.45e-06 | 4.05e-10 |  | 
Cc1cc(-c2nc(-c3ccc([C@H](C)N[C@@H](C)C(=O)O)cc3)no2)ccc1-c1ccccc1C(F)(F)F (racemic) [Example 24, N-[(1S)-1-(4-{5-[2-methyl-2′-(trifluoromethyl)biphenyl-4-yl]-1,2,4-oxadiazol-3-yl}phenyl)ethyl]-L-alanine, hydrochloride salt and N-[(1R)-1-(4-{5-[2-methyl-2′-(trifluoromethyl)biphenyl-4-yl]-1,2,4-oxadiazol-3-yl}phenyl)ethyl]-D-alanine, hydrochloride salt] |  |  | 4.29e-09 | 0.0894
CCN(Cc1cccc(-c2noc(-c3ccc(-c4ccccc4C)c(C(F)(F)F)c3)n2)c1)C(C)(C)C(=O)O [Example 88, 2-(Ethyl-{3-[5-(2′-methyl-2-trifluoromethyl-biphenyl-4-yl)-[1,2,4]oxadiazol-3-yl]-benzyl}-amino)-2-methyl-propionic acid] |  |  | 2.85e-09 | 0.0697
Cc1ccccc1-c1ccc(-c2nc(-c3cccc(CNC(C(=O)O)C(C)O)c3)no2)cc1C(F)(F)F (stereo not shown) [Example 77] |  |  | 5.47e-09 | 0.0399
Cc1cc(-c2nc(-c3cccc(C(C)N(C)CC(=O)O)c3)no2)ccc1-c1ccccc1C(F)(F)F (stereo not shown) [Example 30, N-methyl-N-[1-(3-{5-[2-methyl-2′-(trifluoromethyl)biphenyl-4-yl]-1,2,4-oxadiazol-3-yl}phenyl)ethyl]glycine, hydrochloride salt] |  |  | 1.43e-08 | 0.41
Cc1ccccc1-c1ccc(-c2nc(-c3ccc([C@H](CO)N[C@H](C)C(=O)O)cc3)no2)cc1C(F)(F)F (single isomer, unassigned) [Example 100, hydrochloride salt] | 2.45e-06 | 1.09e-09 |  | 
COCc1cc(-c2nc(-c3ccc([C@@H](C)N(C)CC(=O)O)cc3)no2)ccc1-c1ccccc1C [Example 97, N-[(1R)-1-(4-{5-[2-(methoxymethyl)-2′-methylbiphenyl-4-yl]-1,2,4-oxadiazol-3-yl}phenyl)ethyl]-N-methylglycine, hydrochloride salt] | 4.8e-07 | 7.8e-10 |  | 
CNCc1cccc(-c2noc(-c3ccc(-c4ccccc4C)c(C(F)(F)F)c3)n2)c1 [Example M2] | 2.4e-08 | 5.6e-10 |  | 
Cc1ccccc1-c1ccc(-c2nc(-c3ccc([C@@H](CO)N[C@H](C)C(=O)O)cc3)no2)cc1C(F)(F)F (single isomer, unassigned) [Example 99, hydrochloride salt] | 2.3e-06 | 8.85e-10 |  | 
